Measured values as given in PubChem BioAssay (NCI).
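Following 48 hours of exposure in 96-well plates, responses at five concentrations were used to interpolate endpoints linearly. GI50: concentration for 50% inhibition of growth. TGI marks complete inhibition of growth.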

Key:
Experiment in all cases: inhibition of tumour cell growth, NCI panel, 48 h
SW-620 colon = tested on: SW-620 colon
NCI-H522 lung = tested on: NCI-H522 lung
HS 578T breast = tested on: HS 578T breast
K-562 leukemia = tested on: K-562 leukemia
EKVX NSCLC = tested on: EKVX NSCLC
DU-145 prostate = tested on: DU-145 prostate
RXF 393 renal = tested on: RXF 393 renal
786-0 renal = tested on: 786-0 renal
MALME-3M melanoma = tested on: MALME-3M melanoma
NCI-H23 lung = tested on: NCI-H23 lung

Row | Structure (SMILES) | TGI (SW-620 colon) | TGI (NCI-H522 lung) | TGI (HS 578T breast) | TGI (K-562 leukemia) | TGI (EKVX NSCLC) | TGI (DU-145 prostate) | TGI (RXF 393 renal) | TGI (786-0 renal) | TGI (MALME-3M melanoma) | TGI (NCI-H23 lung) | GI50 (SW-620 colon) | GI50 (NCI-H522 lung) | GI50 (HS 578T breast) | GI50 (K-562 leukemia) | GI50 (EKVX NSCLC) | GI50 (DU-145 prostate) | GI50 (RXF 393 renal) | GI50 (786-0 renal) | GI50 (MALME-3M melanoma) | GI50 (NCI-H23 lung)
1 | O=C(C/C(=N/O)C(=O)NC1=C(Cl)C(=O)c2ccccc2C1=O)CC(c1ccccc1)c1c(O)c2ccccc2oc1=O (centres undefined) | > 100 µM | 52.9 µM | 50.6 µM | > 100 µM | 42.3 µM | 11.2 µM | 35 µM | > 100 µM | 4.55 µM | 72.1 µM |  |  |  |  |  |  |  |  |  | 
2 | C=C1C(O)C2C(=C(CC)C13CC3)C(=O)C(C)(C)C2OC (centres undefined) | > 100 µM | > 100 µM | > 100 µM | > 100 µM | > 100 µM | > 100 µM | > 100 µM | > 100 µM | > 100 µM | > 100 µM | 59.9 µM | 37.6 µM | > 100 µM | 31.3 µM | 82.6 µM | 57.9 µM | > 100 µM | > 100 µM | > 100 µM | 55.6 µM
3 | O=c1cnn(C2OC(CO)C(O)C2O)c(=S)[nH]1 (centres undefined) | > 74.6 µM | > 55.4 µM | > 100 µM | > 44.6 µM | > 100 µM | > 100 µM | > 100 µM | > 100 µM | > 100 µM | > 100 µM |  |  |  |  |  |  |  |  |  | 
4 | COc1cc(OC)c2nc(C)c3c(c2c1)SCC3 | > 100 µM | 77.8 µM | 57.7 µM | > 100 µM | 52.9 µM | > 100 µM | 54.1 µM | 35.4 µM | 63.8 µM | 58.6 µM |  |  |  |  |  |  |  |  |  | 
5 | Cn1ncnc1[C@H]1c2n[nH]c(=O)c3cc(F)cc(c23)N[C@@H]1c1ccc(F)cc1 | > 100 µM | > 100 µM | > 100 µM | > 100 µM |  | > 100 µM | > 100 µM | > 100 µM | > 100 µM | > 100 µM | 25.9 µM | > 100 µM | > 100 µM | > 100 µM |  | 3.59 µM | 25.9 µM | > 100 µM | > 100 µM | > 34.5 µM
6 | Cc1ccc(S(=O)(=O)c2c(COC(=O)c3cccc(C)c3)c(-c3ccccc3)nn2C)cc1 | > 100 µM | > 100 µM | > 100 µM |  |  | > 100 µM | > 100 µM | > 100 µM | > 100 µM | > 100 µM | > 100 µM | > 100 µM | > 100 µM |  |  | > 100 µM | > 100 µM | > 100 µM | > 100 µM | > 100 µM
7 | O=C1C(Nc2ccc(Cl)cc2)=C(I)C(=O)c2ncccc21 | 2 µM |  | 6.44 µM | 10.4 µM | 3.32 µM | 3.37 µM | 3.12 µM | 2.25 µM | 2.14 µM | 3.17 µM | 0.378 µM |  | 2.13 µM | 0.278 µM | 1.71 µM | 1.37 µM | 1.69 µM | 0.91 µM | 0.875 µM | 1.25 µM
8 | O=C(Nc1cccc(-n2cc(-c3ccncc3)c(-c3ccc(Cl)c(O)c3)n2)c1)Nc1cc(C(F)(F)F)cc(C(F)(F)F)c1 | 3.73 µM | 2.1 µM | 4.01 µM | 2.98 µM |  | 2.94 µM | 2.21 µM | 2.35 µM | 2.24 µM | 2.86 µM | 1.18 µM | 0.707 µM | 1.2 µM | 0.52 µM |  | 0.963 µM | 0.935 µM | 1.02 µM | 0.831 µM | 0.998 µM
9 | COc1cccc(N2C(=O)C3c4[nH]c5ccccc5c4C4CCCC4C3C2=O)c1 (centres undefined) | > 10 µM | > 10 µM | 8.91 µM | > 10 µM | > 10 µM | > 10 µM | > 10 µM | 4.41 µM | 8.22 µM | > 10 µM |  |  |  |  |  |  |  |  |  | 
10 | CSC1=C(N)C(=O)c2[nH]cc(CO)c2C1=N | 0.422 µM | 0.364 µM | 0.796 µM | 0.534 µM | 1.22 µM | 0.308 µM | 0.85 µM | 3.24 µM | 0.192 µM | 0.344 µM | 0.198 µM | 0.155 µM | 0.282 µM | 0.221 µM | 0.26 µM | 0.166 µM | 0.281 µM | 1.44 µM | 0.0714 µM | 0.109 µM
11 | COc1cccc(-c2c[nH]c3c(N/N=C/c4ccncc4)ncnc23)c1 | 5.39 µM | 7.78 µM | 9.97 µM | > 25 µM | 24.1 µM | > 15.2 µM | 2.16 µM | 18.6 µM | 20.9 µM | 11.8 µM | 1.5 µM | 2.25 µM | 0.816 µM | 1 µM | 7.06 µM | 2.23 µM | 0.501 µM | 1.26 µM | 8.58 µM | 2.98 µM
12 | CCCCOC(=O)N1CCN(/[N+]([O-])=N/Oc2ccc([N+](=O)[O-])cc2[N+](=O)[O-])CC1 | > 100 µM | > 100 µM | > 100 µM | > 100 µM | 23.5 µM | 12 µM | 40.4 µM | 5.67 µM |  | 19.5 µM | 3.38 µM | 2.91 µM | 20.9 µM | 5.97 µM | 8.01 µM | 3.35 µM | 17.6 µM | 2.47 µM |  | 4.6 µM
13 | COc1ccc(CCN2CC=Cn3c2nc2ccccc2c3=O)cc1 | > 100 µM | 0.0375 µM | 77.4 µM | > 100 µM | > 100 µM | > 23.3 µM | > 100 µM | 31.6 µM |  | > 100 µM | 0.037 µM | 0.0113 µM | 0.0329 µM | 0.0203 µM | 0.185 µM | 0.0374 µM | 0.0309 µM | 0.0445 µM |  | 0.0416 µM
14 | Cc1c(C(=O)Nc2ccccc2)sc2ncn(Cc3cccc(Cl)c3)c(=O)c12 | > 100 µM | > 100 µM | > 100 µM | > 100 µM | > 100 µM | > 100 µM | 71.4 µM | > 100 µM |  | > 100 µM | 53.3 µM | 19 µM | 42.6 µM | 4.87 µM | 30.2 µM | 34.9 µM | 24.8 µM | 29.6 µM |  | 6.5 µM
